Experimental data: patent publication US20080032959A1, “Estrogen Receptor Modulators” (priority 2004, published 2008)

How the values were obtained:
Format in all cases: in vivo, mouse
[1] = tested on: PR immunoreactive cells in the hippocampus; assay: Murine brain PR ICC assay, hippocampus (PR regulated exclusively by ERα); conditions: 3 days
Method: (§1) Animals (n=5/group) were treated for 3 days and brains and uteri were collected 24 hours after the last treatment and processed for immunohistochemistry.
(§2) Female mice (12-16 wks of age) are ovariectomized by the vendor (C57BL/6s from Charles River) and shipped one week later. Animals are fed a soy-free rodent chow upon arrival at the Merck animal facility, where they are given an additional week to adjust to the new environment. […] Approximately 24 hours after the last dose, animals are deeply anesthetized with ketamine/xylazine and are transcardially perfused with 50 ml of 3.5% acrolein and 2% paraformaldehyde in 0.1 M sodium phosphate buffer (PB), pH 7.4. Brains are immediately removed and placed into ice cold 0.1 M PB and stored at 4 C overnight. Brains are sectioned at 40 μm on a vibrating microtome in 0.1M PB, transferred into cryoprotectant (30% sucrose; 30% ethylene glycol in 0.1 M PB, pH 7.4) and stored at −20° C. until processing for immunocytochemistry.
Free floating 40 μm sections are washed in cold 0.1 M phosphate buffered saline (PBS), pH 7.4, to thoroughly remove cryoprotectant. To insure consistent immunolabeling across animals, a screen-bottom 24-well tissue holder and fitted solid lucite tray containing buffer is used to conduct the experiment. Thus, all sections are co-incubated in the same solutions/conditions during the entire experiment. […]

[2] = tested on: Progesterone receptor (PR) protein in the dorsal raphe nucleus; assay: Murine brain progestin receptor (PR) ICC assay, dorsal raphe nucleus; conditions: for PR induction in the dorsal raphe nucleus: βERKO mouse lacking functional ERβ, treated 3 days, E2 0.2 mg/kg, A 5 or 10 mg/kg, immunohistochemistry 24 h after last treatment
Method: as §1, §2
Free floating 40 μm sections are washed in cold 0.1 M phosphate buffered saline (PBS), pH 7.4, to thoroughly remove cryoprotectant. To insure consistent immunolabeling across animals, a screen-bottom 24-well tissue holder and fitted solid lucite tray containing buffer is used to conduct the experiment. Thus, all sections are co-incubated in the same solutions/conditions during the entire experiment. To deter non-specific staining in acrolein-fixed tissue, sections are washed in 1% sodium borohydride (NaBH4) in PBS for 30 minutes and rinsed 8 to 10 times with PBS. Endogenous peroxidase activity is inhibited by washing tissue in 0.3% hydrogen peroxide and 10% methanol in PBS for 15 minutes. Sections are washed in PBS and blocked in either 1) 2% normal goat serum in PBS with 0.05% Triton X-100 (PBST) for one hour, or 2) a mouse-on-mouse Ig blocking reagent (Vector) for 1 hour followed by a mouse protein concentrate (Vector) for 30 min. Sections are incubated with PR antibody in blocking buffer diluted to 1% normal serum over one night at RT and one night at 4 C, or three nights at 4 C. […]

[3] = tested on: wild type and estrogen receptor beta knockout (βERKO) mice; assay: Uterine weights after 3 days of treatment; conditions: treated 3 days, E2 0.2 mg/kg, A 5 or 10 mg/kg, uteri collected 24 hrs after last treatment
Method: Animals (n=5/group) were treated for 3 days and brain and uteri were collected 24 hrs after last treatment.

| Structure (SMILES) | PR immunoreactive cells in the hippocampus ([1]; 5 mg/kg) | PR immunoreactive cells in the hippocampus ([1]; high dose 10 mg/kg) | ER-beta activity in brain ([2]; at the doses tested (A 5 or 10 mg/kg), 3 days) | PR induction in the dorsal raphe nucleus [2] | uterine weight [3] |
| --- | --- | --- | --- | --- | --- |
| C[C@]12CC[C@H]3[C@@H](CC=C4C[C@@H](O)CC[C@@]43C)[C@@H]1CC[C@@H]2O [A, delta-5-androstene-3-beta-17-beta-diol] | no PR immunoreactivity | just an occasional, lightly-stained cell | full ER-beta activity in brain | complete loss of PR induction | only a modest effect |
| C[C@]12CC[C@@H]3c4ccc(O)cc4CC[C@H]3[C@@H]1CC[C@@H]2O [E2, 17β-estradiol, reference compound] |  |  |  | attenuation of PR induction | robustly increased uterine weight |
